# Source: patent publication US6001832A, “[1,2,4]triazolo[4,3-a]quinoxalinone derivatives, their preparation and use” (Novo Nordiskals, priority 1994, dated 1999)
# Key:
# AMPA type receptors = assay: 3H-AMPA Binding (Test 1); details: displacement of 50% of the specific binding of 3H-AMPA (5 nM); rat cerebral cortical membrane homogenate, 0° C., 30 min, pH 7.1
# Description: (§1) The pharmacological properties of the compounds of the present invention can be illustrated by determining their capability for displacing radioactively labelled 2-amino-3-hydroxy-5-methyl-4-isoxazolepropionic acid (AMPA) from the AMPA type receptors.
# The displacement activity of the compounds may be shown by determining the IC50 value which represents the concentration (μM) which causes a displacement of 50% of the specific binding of ^3 H-AMPA.
# ^3 H-AMPA Binding (Test 1)
# 500 μl of thawed rat cerebral cortical membrane homogenate in Tris-HCl (30 mM), CaCl2 (2.5 mM) and KSCN (100 mM) pH 7.1 were incubated at 0° C. for 30 min. with 25 μl ^3 H-AMPA (5 nM final concentration) and the test compound and buffer. Nonspecific binding was determined by incubation with L-glutamic acid (600 μM final concentration). The binding reaction was terminated by adding 5 ml of ice-cold buffer followed by filtration through Whatman GF/C glass fibre filters and 2×5 ml wash with ice-cold buffer. Bound radioactivity was measured by scintillation counting. IC50 was determined by Hill analysis of at least four concentrations of test compound.
# [1] = test system: quisqualic acid stimulated spreading depression in chicken retina; assay: Spreading Depression (Test 2): quisqualic acid stimulated spreading depression in chicken retina; type: cell-based; details: Gallus gallus, 0.25 h; 50% maximal inhibition of quisqualate (1 μg/ml) stimulated spreading depression in chicken retina; 15 min incubation with test compound, 26° C.
# Description: as §1
# The antagonism is measured by determining the IC50 value which represents the concentration which produces a 50% maximal inhibition of quisqualic acid stimulated spreading depression in chicken retina.
# Spreading Depression (Test 2)
# Chicks (3-10 days old) were decapitated, the eyes enucleated and sectioned along the equatorial plane. […]
# The eyes were initially incubated in normal P.S.S. for 15-30 min. and then transferred to P.S.S. containing quisqualate (1 μg/ml). […] The time taken for an S.D. to start in each eye was measured.
# After a further 15 min. of incubation in normal P.S.S. the eyes were transferred to normal P.S.S. containing the test compound and incubated for 15 min. […] The time taken for an S.D. to start in each eye was measured again. The eyes were then placed back in normal P.S.S. and after 15 min. the time taken for S.D. to start was measured again, in order to assess the degree of recovery from any drug effects. […]
smiles,measurement,setting,value
"Cc1cn(-c2cc3c(cc2C(F)(F)F)[nH]c(=O)c2nnc(CP(=O)(O)O)n23)c(-c2ccccc2)n1 [Example 2, 8-(4-Methyl-2-phenyl-1H-imidazol-1-yl)-1-phosphonomethyl-7-trifluoromethyl[1,2,4]triazolo[4,3-a]quinoxalin-4(5H)-one]",IC50,AMPA type receptors,390 nM
same,IC50,[1],400 nM
